# Data reported in ChEMBL document CHEMBL4483862, “Open-source discovery of chemical leads for next-generation chemoprotective antimalarials” (2018).
# Test system: Plasmodium berghei
# Experiment: Luciferase/luciferin-expressing antifolate-resistant parasites were used to infect a culture of HepG2 cells that were pre-incubated with compounds. Infected hepatocytes emit light due to the luciferase reaction. Assay results are presented as the percent inhibition of light emission compared to control. […]
# Format: functional
# Settings: sporozoite; for IC90: read-out: LUCIFERASE INFECTION ASSAY - IC90
compound,measurement,setting,value
O=C1C=CC(=O)N1c1cc(Cl)cc(Cl)c1,IC50,"FFLUC_HILL_SLOPE 11.6, FFLUC_R_SQUARED 0.448, PBLUC_HILL_SLOPE 9.84, PBLUC_R_SQUARED 0.0939, read-out: LUCIFERASE INFECTION ASSAY - IC50",> 13.6 µM
same,IC90,,> 13.6 µM
c1coc(-c2cn3c(-c4ccsc4)cnc3cn2)c1,IC50,"FFLUC_HILL_SLOPE 11.6, FFLUC_R_SQUARED 0.514, read-out: LUCIFERASE INFECTION ASSAY - IC50",> 12.3 µM
same,IC90,,> 12.3 µM
Cc1ccc2c(c1)C(=O)C(=O)N2CCN1CCCCC1,IC50,"FFLUC_HILL_SLOPE 11.5, FFLUC_R_SQUARED 0.31, read-out: LUCIFERASE INFECTION ASSAY - IC50",> 12.1 µM
same,IC90,,> 12.1 µM
CC(C)(C)c1ccc(OCc2nc(=O)cc(Nc3ccccc3Cl)[nH]2)cc1,IC50,"FFLUC_HILL_SLOPE 11.4, FFLUC_R_SQUARED 0.169, HEPG2TOX_HILL_SLOPE 0.949, HEPG2TOX_R_SQUARED 0.863, read-out: LUCIFERASE INFECTION ASSAY - IC50",> 8.6 µM
same,IC90,,> 8.6 µM
CCCCCCN(C(=O)CC(NC(=O)c1ccccc1)c1ccccc1)c1nc2ccccc2s1 (configuration not stated),IC50,"FFLUC_HILL_SLOPE 11.5, FFLUC_R_SQUARED 0.371, PBLUC_HILL_SLOPE 30.2, PBLUC_R_SQUARED 0.437, read-out: LUCIFERASE INFECTION ASSAY - IC50",8.6 µM
same,IC90,,9.24 µM
O=C(/C(=C/c1ccc(F)cc1)c1ccc(-c2ccccc2)cc1)N1CCN(c2ccccc2Cl)CC1,IC50,"FFLUC_HILL_SLOPE 11.6, FFLUC_R_SQUARED 0.516, HEPG2TOX_HILL_SLOPE 7.73, HEPG2TOX_R_SQUARED 0.736, read-out: LUCIFERASE INFECTION ASSAY - IC50",> 10 µM
same,IC90,,> 10 µM
N#C/C(=C\Nc1ncccn1)S(=O)(=O)c1ccccc1Cl,IC50,"FFLUC_HILL_SLOPE 11.3, FFLUC_R_SQUARED 0.831, read-out: LUCIFERASE INFECTION ASSAY - IC50",> 10.3 µM
same,IC90,,> 10.3 µM
COc1ccc2c(c1)/C(=N/NC(=O)c1ccc(CSc3ccc(Cl)cc3)cc1)C(=O)N2,IC50,"FFLUC_HILL_SLOPE 11.4, FFLUC_R_SQUARED 0.124, PBLUC_HILL_SLOPE 3.43, PBLUC_R_SQUARED 0.087, read-out: LUCIFERASE INFECTION ASSAY - IC50",6.03 µM
same,IC90,,> 10 µM
CSc1ncccc1C(=O)Nc1nc(-c2ccc3ccccc3c2)cs1,IC50,"FFLUC_HILL_SLOPE 11.5, FFLUC_R_SQUARED 0.449, read-out: LUCIFERASE INFECTION ASSAY - IC50",> 10 µM
same,IC90,,> 10 µM
CCNC(=O)C(C)Nc1ncnc2scc(-c3ccc(OC)cc3)c12 (configuration not stated),IC50,"FFLUC_HILL_SLOPE 11.3, FFLUC_R_SQUARED 0.625, HEPG2TOX_HILL_SLOPE 3.17, HEPG2TOX_R_SQUARED 0.973, PBLUC_HILL_SLOPE 4.87, PBLUC_R_SQUARED 0.647, read-out: LUCIFERASE INFECTION ASSAY - IC50",6.11 µM
same,IC90,,9.59 µM
C=CCOc1ccccc1CN(c1ccc2c(c1)OCCO2)S(=O)(=O)c1cccs1,IC50,"FFLUC_HILL_SLOPE 11.5, FFLUC_R_SQUARED 0.0724, read-out: LUCIFERASE INFECTION ASSAY - IC50",> 10 µM
same,IC90,,> 10 µM
Cc1cnc(NC(=O)Nc2cccc(C(F)(F)F)c2)s1,IC50,"FFLUC_HILL_SLOPE 11.7, FFLUC_R_SQUARED 0.144, HEPG2TOX_HILL_SLOPE 3.17, HEPG2TOX_R_SQUARED 0.951, PBLUC_HILL_SLOPE 13.6, PBLUC_R_SQUARED 0.664, read-out: LUCIFERASE INFECTION ASSAY - IC50",3.25 µM
same,IC90,,3.82 µM
CC(C)c1ccc(-c2csc(NC(=O)CCn3cnc([N+](=O)[O-])c3)n2)c(C(C)C)c1,IC50,"FFLUC_HILL_SLOPE 11.6, FFLUC_R_SQUARED 0.59, HEPG2TOX_HILL_SLOPE 11.1, HEPG2TOX_R_SQUARED 0.951, PBLUC_HILL_SLOPE 3.89, PBLUC_R_SQUARED 0.436, read-out: LUCIFERASE INFECTION ASSAY - IC50",4.67 µM
same,IC90,,8.21 µM
CCC(=O)c1cc(Br)ccc1OC(=O)Cc1coc2cc(C)c(C)cc12,IC50,"FFLUC_HILL_SLOPE 11.7, FFLUC_R_SQUARED 0.164, HEPG2TOX_HILL_SLOPE 5.81, HEPG2TOX_R_SQUARED 0.234, PBLUC_HILL_SLOPE 5.23, PBLUC_R_SQUARED 0.568, read-out: LUCIFERASE INFECTION ASSAY - IC50",5.48 µM
same,IC90,,8.33 µM
Cc1nnc(S(=O)(=O)CC(=O)N2CCc3ccccc32)n1C,IC50,"FFLUC_HILL_SLOPE 11.6, FFLUC_R_SQUARED 0.688, read-out: LUCIFERASE INFECTION ASSAY - IC50",> 10 µM
same,IC90,,> 10 µM
COc1ccccc1/C=C(/C(=O)OC(C(=O)c1c[nH]c2ccccc12)c1ccccc1)c1ccccc1 (configuration not stated),IC50,"FFLUC_HILL_SLOPE 11.3, FFLUC_R_SQUARED 0.353, PBLUC_HILL_SLOPE 1.04, PBLUC_R_SQUARED 0.705, read-out: LUCIFERASE INFECTION ASSAY - IC50",3.6 µM
same,IC90,,> 10 µM
Cc1cc(C)c(C2C3=C(Nc4c2c(C)nn4-c2ccccn2)c2ccccc2C3=O)c(C)c1 (configuration not stated),IC50,"FFLUC_HILL_SLOPE 11.5, FFLUC_R_SQUARED 0.374, PBLUC_HILL_SLOPE 1.59, PBLUC_R_SQUARED 0.668, read-out: LUCIFERASE INFECTION ASSAY - IC50",5.07 µM
same,IC90,,> 10 µM
O=C(Nc1cccc(Cl)c1)C1CCN(c2ccc(C(F)(F)F)cn2)CC1,IC50,"FFLUC_HILL_SLOPE 11.3, FFLUC_R_SQUARED 0.5, read-out: LUCIFERASE INFECTION ASSAY - IC50",> 8.6 µM
same,IC90,,> 8.6 µM
CCOc1ccc(C(C)=O)cc1Cn1cnc2c(cnn2-c2ccccc2)c1=O,IC50,"FFLUC_HILL_SLOPE 11.6, FFLUC_R_SQUARED 0.166, HEPG2TOX_HILL_SLOPE 1.94, HEPG2TOX_R_SQUARED 0.895, read-out: LUCIFERASE INFECTION ASSAY - IC50",> 10 µM
same,IC90,,> 10 µM
CN(C)S(=O)(=O)c1ccc(OCCOC(=O)c2c3c(nn2-c2ccccc2)CCCC3)cc1,IC50,"FFLUC_HILL_SLOPE 11.3, FFLUC_R_SQUARED 0.368, read-out: LUCIFERASE INFECTION ASSAY - IC50",> 10 µM
same,IC90,,> 10 µM
O=C(Cc1coc2ccc3ccccc3c12)Nc1cc(Cl)ccc1N1CCOCC1,IC50,"FFLUC_HILL_SLOPE 11.6, FFLUC_R_SQUARED 0.426, read-out: LUCIFERASE INFECTION ASSAY - IC50",> 10 µM
same,IC90,,> 10 µM
CC(C)(C)c1cc(-c2cc(C(F)(F)F)[nH]n2)c2c(c1)C(C)(C)CC2,IC50,"FFLUC_HILL_SLOPE 11.7, FFLUC_R_SQUARED 0.064, read-out: LUCIFERASE INFECTION ASSAY - IC50",> 9.81 µM
same,IC90,,> 9.81 µM
Cc1ccc2nc(NC(=O)c3ccc(Cl)cc3Cl)c(C(=O)NC3CCCC3)n2c1,IC50,"FFLUC_HILL_SLOPE 11.5, FFLUC_R_SQUARED 0.0941, HEPG2TOX_HILL_SLOPE 0.896, HEPG2TOX_R_SQUARED 0.951, PBLUC_HILL_SLOPE 3.11, PBLUC_R_SQUARED 0.82, read-out: LUCIFERASE INFECTION ASSAY - IC50",0.559 µM
same,IC90,,1.13 µM
CSc1nnc(Sc2ncc([N+](=O)[O-])s2)s1,IC50,"FFLUC_HILL_SLOPE 11.6, FFLUC_R_SQUARED 0.224, HEPG2TOX_HILL_SLOPE 8.93, HEPG2TOX_R_SQUARED 0.0924, PBLUC_HILL_SLOPE 12.6, PBLUC_R_SQUARED 0.322, read-out: LUCIFERASE INFECTION ASSAY - IC50",10 µM
same,IC90,,> 11.3 µM
CCOc1ccc(S(=O)(=O)Nc2cc(Sc3ccc(C)cc3)c(O)c3ccccc23)cc1,IC50,"FFLUC_HILL_SLOPE 11.6, FFLUC_R_SQUARED 0.0239, HEPG2TOX_HILL_SLOPE 1.78, HEPG2TOX_R_SQUARED 0.0588, PBLUC_HILL_SLOPE 15.2, PBLUC_R_SQUARED 0.324, read-out: LUCIFERASE INFECTION ASSAY - IC50",9.98 µM
same,IC90,,> 10 µM
CCCc1c(NC(=O)Nc2cc(C(F)(F)F)cc(C(F)(F)F)c2)cnn1-c1ccccc1,IC50,"FFLUC_HILL_SLOPE 11.3, FFLUC_R_SQUARED 0.657, HEPG2TOX_HILL_SLOPE 5.77, HEPG2TOX_R_SQUARED 0.944, PBLUC_HILL_SLOPE 9.21, PBLUC_R_SQUARED 0.384, read-out: LUCIFERASE INFECTION ASSAY - IC50",2.99 µM
same,IC90,,3.79 µM
Cc1nc(SC(C)C(=O)c2c[nH]c3ccccc23)c2c(=O)n(C)c(=O)n(CC(C)C)c2n1 (configuration not stated),IC50,"FFLUC_HILL_SLOPE 11.3, FFLUC_R_SQUARED 0.363, PBLUC_HILL_SLOPE 2.42, PBLUC_R_SQUARED 0.455, read-out: LUCIFERASE INFECTION ASSAY - IC50",7.35 µM
same,IC90,,> 10 µM
CCN(CC)S(=O)(=O)c1cccc(-c2nnc(SCC(=O)N3CCC(c4ccccc4)=N3)n2Cc2ccccc2)c1,IC50,"FFLUC_HILL_SLOPE 11.4, FFLUC_R_SQUARED 0.285, PBLUC_HILL_SLOPE 0.735, PBLUC_R_SQUARED 0.117, read-out: LUCIFERASE INFECTION ASSAY - IC50",> 10 µM
same,IC90,,> 10 µM
CCN(Cc1ccccc1)c1nc2ccccc2nc1NS(=O)(=O)c1cc([N+](=O)[O-])ccc1C,IC50,"FFLUC_HILL_SLOPE 11.4, FFLUC_R_SQUARED 0.293, HEPG2TOX_HILL_SLOPE 1.92, HEPG2TOX_R_SQUARED 0.959, PBLUC_HILL_SLOPE 2.98, PBLUC_R_SQUARED 0.638, read-out: LUCIFERASE INFECTION ASSAY - IC50",7.87 µM
same,IC90,,> 10 µM
O=C(Nc1ncc(Cc2cccc(C(F)(F)F)c2)s1)c1ccc(-n2ccnc2)nc1,IC50,"FFLUC_HILL_SLOPE 11.4, FFLUC_R_SQUARED 0.309, HEPG2TOX_HILL_SLOPE 1.14, HEPG2TOX_R_SQUARED 0.957, PBLUC_HILL_SLOPE 2.81, PBLUC_R_SQUARED 0.544, read-out: LUCIFERASE INFECTION ASSAY - IC50",3.35 µM
same,IC90,,7.33 µM
CCN(CC)c1nc(N)c2c(N)nc3c(c2c1C#N)CC(=O)N3c1cc(Cl)cc(Cl)c1,IC50,"FFLUC_HILL_SLOPE 11.5, FFLUC_R_SQUARED 0.738, PBLUC_HILL_SLOPE 1.44, PBLUC_R_SQUARED 0.624, read-out: LUCIFERASE INFECTION ASSAY - IC50",4.18 µM
same,IC90,,> 10 µM
